# Data reported in patent US20050180947A1, “Novel application of vaccination against TNF-alpha” (priority 2002, published 2005).
# B1: TNF34: human TNF-α variant, PADRE epitope inserted into loop 3 at Gly108-Ala109; SEQ ID NO: 18 in PCT/DK02/00764 (protein)
# chain: VRSSSRTPSDKPVAHVVANPQAEGQLQWLNRRANALLANGVELRDNQLVVPSEGLYLIYSQVLFKGQGCPSTHVLLTHTISRIAVSYQTKVNLLSAIKSPCQRETPEGAKFVAAWTLKAAAAEAKPWYEPIYLGGVFQLEKGDRLSAEINRPDYLDFAESGQVYFGIIAL
# modifications: hTNF with inserted PADRE
# Assays:
# [1] = test system: rats with sciatic nerve constriction injury (CCI); details: spinal administration prior to CCI; cited from earlier work
# [2] = test system: Male Sprauge-Dawley rats, partial sciatic nerve ligation (PSNI model); assay: Thermal hyperalgesia (plantar test, hind paw withdrawal latency) in the partial sciatic nerve ligation (PSNI/PSNL) model; assay type: in vivo, rat
# Description: Male Sprauge-Dawley rats (200-600 g) were used in all the experiments. The rats were permitted to acclimate 1 week before use in the experiments. The rats were marked with a speed marker on their tails and normally kept in groups of 2-3 per cage pre- and postoperatively. They were housed in clear plastic cages with solid floors covered with sawdust in a normal day/night cycle. Water and food were supplied ad libitum.
# The method of partial sciatic nerve injury is developed by Seltzer. Before surgery, the rats were shaved and washed with iodine solution (Iobac vet.) on the surgical area. The left sciatic nerve was exposed at high-thigh level by making a 2-3 cm incision in the skin. The skin was then freed from the connective tissue surrounding the incision in order to assure free movement of the leg after skin stapling. Using blunt dissection through the biceps femoris, the nerve was exposed and carefully freed from surrounding connective tissue at a site near the trochanter just below the point at which the posterior biceps semitendinosus nerve branches off the common sciatic nerve. Using a small pincette slid under the nerve, the nerve was gently lifted up and fixed. An 8/0 Ethilon suture was inserted into the nerve and tightly ligated so that the dorsal 1/3-1/2 of the nerve thickness was trapped in the ligature. The muscle was closed with 2-3 muscle sutures (4/0 vicryl), and the skin closed with 3-4 skin staples.
# Plantar test (Ugo Basile) was used in this study to asses the nociceptive response.
# The rats were placed in the clear plastic chamber (18 cm×29 cm×12.5 cm) allowed to acclimate to the new environment for about 5 min. Before testing. During this time period the rat was showing exploratory behaviour e.g. standing on its hind leg. When the rat had been acclimated, it stood quietly with occasional bouts of grooming. The radiant heat score beneath the class floor was pointed at the planter hind paw with help from the white sight marks engraved on the top of the I.R vessel.
# The infrared (IR) source was then started and the withdrawal latency recorded.
# When the rat felt pain and withdrew its paw, the sudden drop in radiation led to a automatic stop of the IR source and the time counter and the withdrawal latency could be determined to the nearest 0.1 sec.
# The withdrawal latency was every time tested 5 times with intervals of 5 min. The average of the 5 measurements were then used as the withdrawal latency of the specific rat.
# Rats, which were undergoing PSNL, were only tested on the operated left leg. 3 consecutive days before the operation, the withdrawal latency of the left leg was measured using the average of the 3 days as the basic withdrawal latency. The rat was then tested postoperatively for more days.
# The difference score, expressed as percent reduction from the basic level to the postoperative level measurement, was used as an index for hyperalgesia: [formula] (pom: postoperative measurement)
# Group averages appear with the standard error of the mean. The significance level of difference between means of various groups at certain postoperative times was examined by Student's t-test. The difference between the same group but at different days was examined by ANOVA.
# [3] = Soluble expression of TNF-α variants in E. coli; assay type: physicochemical
# Description: Insertion of the PADRE epitope (SEQ ID NO: 4) into loop 3 in position Gly108-Ala109 is a promising approach to prepare TNF-α variants with a structure closely resembling the native TNF-α molecule. It has been deduced from the TNF-α crystal structure that a TH epitope inserted directly into this position will not have any neighbouring amino acid residues in close proximity to interact with.
# [4] = bacterial host cells grown at 37° C.
molecule,measurement,setting,value
Clc1cccc(Cl)c1N=C1NCCN1 [clonidine],delay in onset of thermal hyperestesia compared to control groups,[1],3 days
same,difference score in percent between the basic level and the postoperative measurement,"[2]; clonidine 0.6 mg/kg once at day 4 postoperatively after testing, day 5",−0.2±8.5%
same,difference score in percent between the basic level and the postoperative measurement,"[2]; clonidine 0.6 mg/kg orally started 2 hours pre PSNI, repeated to day 2, day 2",2.6±3.1%
infliximab,difference score (basic level vs postoperative withdrawal latency) versus saline control,"[2]; infliximab 5 mg/kg i.v. 2 hours prior to PSNL, days 2, 4, 6 and 7 postoperatively",No significant differences
same,difference score in percent between the basic level and the postoperative measurement,"[2]; infliximab 5 μl (10 mg/ml) icv at days 2, 3 and 4, day 3",39.2±5.6%
same,difference score in percent between the basic level and the postoperative measurement,"[2]; infliximab 5 μl (10 mg/ml) icv at days 2, 3 and 4, day 4",43.4±3.8%
same,difference score in percent between the basic level and the postoperative measurement,"[2]; infliximab 5 μl (10 mg/ml) icv at days 2, 3 and 4, day 6",47.2±4.0%
same,difference score in percent between the basic level and the postoperative measurement,"[2]; infliximab 5 μl (10 mg/ml) icv at days 2, 3 and 4, day 8",30.6±6.1%
same,nociceptive threshold compared to the control group,"[2]; infliximab 5 μl (10 mg/ml) icv at days 2, 3 and 4 postoperatively",no significant difference
same,difference score in percent between the basic level and the postoperative measurement,"[2]; infliximab 5 μl (10 mg/ml) icv at days 2, 3 and 4 postoperatively, day 2",41.3±4.4%
same,difference score in percent between the basic level and the postoperative measurement,"[2]; infliximab (10 mg/ml) icv continuously 0.5 μl/h by osmotic pump started day 3 preoperatively, day 2",34.2±5.4%
same,difference score in percent between the basic level and the postoperative measurement,"[2]; infliximab (10 mg/ml) icv continuously 0.5 μl/h started day 3 preoperatively, day 4",34.6±5.4%
same,difference score in percent between the basic level and the postoperative measurement,"[2]; infliximab (10 mg/ml) icv continuously 0.5 μl/h started day 3 preoperatively, day 6",30.3±8.2%
same,difference score in percent between the basic level and the postoperative measurement,"[2]; infliximab (10 mg/ml) icv continuously 0.5 μl/h started day 3 preoperatively, day 8",27.5±5.2%
O=C1CCC(N2C(=O)c3ccccc3C2=O)C(=O)N1 (stereo not shown) [thalidomide],difference score in percent between the basic level and the postoperative measurement,"[2]; thalidomide 50 mg/kg orally daily from 2 h pre-operation, day 2",33.3±4.1%
same,difference score in percent between the basic level and the postoperative measurement,"[2]; thalidomide 50 mg/kg orally daily, day 4",33.9±5.9%
same,difference score in percent between the basic level and the postoperative measurement,"[2]; thalidomide 50 mg/kg orally daily, day 6",40.5±3.2%
same,difference score in percent between the basic level and the postoperative measurement,"[2]; thalidomide 50 mg/kg orally daily, day 8",41.3±3.4%
same,difference score in percent between the basic level and the postoperative measurement,"[2]; thalidomide 50 mg/kg orally daily, day 10",30.6±5.3%
same,difference score in percent between the basic level and the postoperative measurement,"[2]; thalidomide 100 mg/kg orally daily from 2 h pre-operation, day 2",22.0±7.2%
same,difference score in percent between the basic level and the postoperative measurement,"[2]; thalidomide 100 mg/kg orally daily, day 4",32.4±6.4%
same,difference score in percent between the basic level and the postoperative measurement,"[2]; thalidomide 100 mg/kg orally daily, day 6",38.0±4.1%
same,difference score in percent between the basic level and the postoperative measurement,"[2]; thalidomide 100 mg/kg orally daily, day 8",34.1±5.4%
same,difference score in percent between the basic level and the postoperative measurement,"[2]; thalidomide 100 mg/kg orally daily, day 10",29.8±4.6%
TNF_T0: three TNFα monomers linked by two GlyGlyGly linkers; SEQ ID NO: 22 in PCT/DK02/00764,expression form in E. coli / bacterial cells,[3],soluble protein
B1,fraction expressed as inclusion bodies,[3]; [4],95%
same,fraction of the expressed protein soluble in E. coli,[3]; [4],approximately 5%
same,yield of soluble protein from the fermentation,[3]; fermentation temperature 25° C.,~100%
